According to publication PMC6476888, “Design and synthesis of anticancer 1-hydroxynaphthalene-2-carboxanilides with a p53 independent mechanism of action” (Scientific Reports, 2019):
Where two headings read alike, the source gives them in different places.

Assays:
NHDF = assay: Cytotoxicity (MTS, 72 h) against normal human fibroblasts; assay type: cell-based; details: for IC50: MTS, 72 h incubation
Method: (§1) All of the synthesized compounds were tested for their antiproliferative activity against human colon cancer (Table 1). We used both the wild-type and p53-negative cell lines (HCT116^+/+ and HCT116^−/−, respectively). Mutations in the TP53 gene are present in more than 50% of all cancers and often specifically correspond to a difficult therapy, resistance or a bad prognosis[60]–[63]. The active compounds were additionally tested for their cytotoxicity against normal human fibroblasts. We used 5-fluorouracil (5-FLU), doxorubicin (DOX) and CP-31398 as the standards. 5-FLU is one of the first antimetabolites that was dedicated for cancer treatment and is still used for a wide range of cancers including colon carcinoma. Doxorubicin is a DNA topoisomerase II poison with a high intercalating potency, which is able to induce apoptosis through the p53 pathway. Although DOX has been described as being ineffective in some p53 mutants, its level of activity against the p53 null lines is similar. CP-31398, on the other hand, is an experimental drug in the clinical phase and its mechanism of action is through the reactivation some of p53 mutants. Its activity against the p53 null cell lines is greatly diminished and is actually lower than its cytotoxicity.
(§2) The human colon cancer cell line HCT116 wild type was obtained from ATCC and the normal human fibroblast cell lines NHDF were obtained from PromoCell. The human colon cancer cell line HCT116 with a p53 deletion (p53^−/−) was kindly provided by Prof. M. Rusin from the Maria Sklodowska-Curie Memorial Cancer Centre and Institute of Oncology in Gliwice, Poland[89]. The cells were grown as monolayer cultures in Dulbecco’s modified Eagle’s medium with the antibiotic gentamicin (200 μL/100 mL medium) in 75 cm^2 flasks (Nunc). The DMEM for the HCT116 were supplemented with 12% heat-inactivated fetal bovine serum (Sigma-Aldrich, St. Louis, MO, USA) and for NHDF with 15% non-inactivated fetal bovine serum (Sigma Aldrich, St. Louis, MO, USA). The cells were cultured under standard conditions at 37 °C in a humidified atmosphere at 5% CO2.
(§3) The cells were seeded in 96-well plates (Nunc) at a density of 5,000 cells/well (HCT116) and 4,000 cells/well (NHDF) and incubated at 37 °C for 24 h. The assay was performed following a 72 h incubation with varying concentrations of the compounds that were being tested. Then, 20 µL of CellTiter 96® AQueous One Solution-MTS (Promega) was added to each well (with 100 µL DMEM without phenol red) and incubated for 1 h at 37 °C. The optical densities of the samples were analyzed at 490 nm using a Synergy 4 multi-plate reader (BioTek, Winooski, VT, USA). The results are expressed as the percentage of the control and were calculated as the inhibitory concentration (IC50) values (using a GraphPad Prism 7). The IC50 parameter was defined as the compound concentration that was necessary to reduce the proliferation of cells to 50% of the untreated control. Each individual compound was tested in triplicate in a single experiment with each experiment being repeated three or four times.

HCT116^−/− = assay: Antiproliferative assay (MTS, 72 h) on HCT116 with p53 deletion; assay type: cell-based, human; details: MTS, 72 h incubation
Method: as §1, §2, §3

HCT116^+/+ = assay: Antiproliferative assay (MTS, 72 h) on HCT116 wild type; assay type: cell-based, human; details: MTS, 72 h incubation, read-out: Activity IC50 HCT116^+/+
Method: as §1, §2, §3

Row | SMILES | IC50 (NHDF; Homo sapiens, NHDF) | IC50 (HCT116^−/−; Homo sapiens, HCT-116) | IC50 (HCT116^+/+; Homo sapiens, HCT-116) | melting point | IC50 (NHDF) | IC50 (HCT116^−/−) | IC50 (HCT116^+/+) | selectivity index (NHDF; cytotoxicity against the normal cell line vs HCT116)
1 | O=C(Nc1ccc(Cl)cc1F)c1ccc2ccccc2c1O [4q] | > 25 µM | 9.69 ± 3.13 µM | 9.89 ± 3.26 µM | 163 to 165 °C |  |  |  | 
2 | Cc1ccc(C(F)(F)F)cc1NC(=O)c1ccc2ccccc2c1O [3i] | > 25 µM | 5.08 ± 1.23 µM | 8.41 ± 1.07 µM | 140 to 143 °C |  |  |  | 
3 | O=C(Nc1cc(C(F)(F)F)ccc1F)c1ccc2ccccc2c1O [4u] | > 25 µM | 7.45 ± 1.74 µM | 10.1 ± 2.61 µM | 190 to 192 °C |  |  |  | 
4 | COc1ccc(Cl)c(NC(=O)c2ccc3ccccc3c2O)c1 [5p] | > 25 µM | 19.3 ± 2.09 µM | 24.1 ± 2.58 µM | 159 to 161 °C |  |  |  | 
5 | COc1ccc(C)c(NC(=O)c2ccc3ccccc3c2O)c1 [3h] | > 25 µM | > 25 µM | 11.7 ± 3.81 µM | 128 to 130 °C |  |  |  | 
6 | O=C(Nc1cc(F)c(F)cc1F)c1ccc2ccccc2c1O [4j] | 24.52 ± 0.03 µM | 4.75 ± 0.05 µM | 1.87 ± 0.35 µM | 201 to 204 °C |  |  |  | 
7 | O=C(Nc1ccc(F)c(F)c1F)c1ccc2ccccc2c1O [4i] | > 25 µM | 4.43 ± 0.66 µM | 4.28 ± 0.66 µM | 173 to 175 °C |  |  |  | 
8 | O=C(Nc1cccc(C(F)(F)F)c1F)c1ccc2ccccc2c1O [4p] | 24.4 ± 2.51 µM | 5.45 ± 1.72 µM | 6.5 ± 1.16 µM | 174 to 175 °C |  |  |  | 
9 | O=C(Nc1ccc(Br)c(C(F)(F)F)c1)c1ccc2ccccc2c1O [7o] | > 25 µM | 13.9 ± 3.75 µM | > 25 µM | 172 to 173 °C |  |  |  | 
10 | O=C(Nc1ccc(F)c(F)c1)c1ccc2ccccc2c1O [4g] |  | 5.88 ± 0.5 µM | 3.04 ± 0.06 µM | 153 to 156 °C |  |  |  | 
11 | COc1ccc(OC)c(NC(=O)c2ccc3ccccc3c2O)c1 [2d, N-(2,5-dimethoxyphenyl)−1-hydroxynaphthalene-2-carboxamide] |  | > 25 µM | > 25 µM | 116 to 119 °C |  |  |  | 
12 | O=C(Nc1c(Cl)cc(C(F)(F)F)cc1Cl)c1ccc2ccccc2c1O [5v] |  | > 25 µM | > 25 µM | 191 to 194 °C |  |  |  | 
13 | O=C(Nc1c(Br)cc(F)c(Cl)c1Br)c1ccc2ccccc2c1O [6m] |  | > 25 µM | > 25 µM | 244 to 247 °C |  |  |  | 
14 | COc1ccc(C)cc1NC(=O)c1ccc2ccccc2c1O [2j] |  | > 25 µM | > 25 µM | 106 to 108 °C |  |  |  | 
15 | O=C(Nc1c(F)cc(F)cc1F)c1ccc2ccccc2c1O [4k] |  | > 25 µM | > 25 µM | 180 to 184 °C |  |  |  | 
16 | Cc1ccc(NC(=O)c2ccc3ccccc3c2O)cc1C(F)(F)F [7l] |  | > 25 µM | > 25 µM | 168 to 171 °C |  |  |  | 
17 | COc1ccc(NC(=O)c2ccc3ccccc3c2O)cc1C(F)(F)F [7k] |  | > 25 µM | > 25 µM | 183 to 186 °C |  |  |  | 
18 | O=C(Nc1ccc(F)cc1C(F)(F)F)c1ccc2ccccc2c1O [7g] |  | > 25 µM | > 25 µM | 135 to 137 °C |  |  |  | 
19 | O=C(Nc1cc(Cl)cc(Cl)c1)c1ccc2ccccc2c1O [5i] |  |  |  |  | 11.5 ± 0.88 µM | 2.89 ± 0.38 µM | 2.32 ± 0.26 µM | 
20 | Cc1cc(C)c(NC(=O)c2ccc3ccccc3c2O)c(C)c1 [3g] |  | > 25 µM | > 25 µM | 160 to 163 °C |  |  |  | 
21 | O=C(Nc1cccc(F)c1)c1ccc2ccccc2c1O [4b] |  |  |  |  | > 25 µM | 9.02 ± 1.91 µM | 1.88 ± 0.33 µM | 
22 | O=C(Nc1ccc([N+](=O)[O-])cc1)c1ccc2ccccc2c1O [8c] |  |  |  |  | 12.3 ± 1.49 µM | 0.69 ± 0.09 µM | 0.41 ± 0.05 µM | 30
23 | O=C(Nc1c(F)cccc1F)c1ccc2ccccc2c1O [4f] |  | > 25 µM | > 25 µM | 197 to 200 °C |  |  |  | 
24 | COc1cccc(C)c1NC(=O)c1ccc2ccccc2c1O [2k] |  | > 25 µM | > 25 µM | 177 to 179 °C |  |  |  | 
25 | O=C(Nc1ccccc1Cl)c1ccc2ccccc2c1O [5a] |  |  |  |  | > 25 µM | 22.4 ± 3.58 µM | 16.5 ± 2.25 µM | 
